Broadly, the ED50 is the dose that gives a 50% effect, or the effect in half of the subjects. Read a low ED50 as greater potency. By Ki is commonly meant the equilibrium dissociation constant of an inhibitor or competing ligand from its target. Low values mean a stronger hold on the target, high ones a looser hold on the target.

The values that follow come from ChEMBL document CHEMBL1131247, “Substituted naphthofurans as hallucinogenic phenethylamine-ergoline hybrid molecules with unexpected muscarinic antagonist activity” (J Med Chem, 1998).

Where “and” joins values, the source holds several entries; their conditions need not be identical. Identical values can stand only once.

The species entered for assay [1] is Rattus norvegicus. Description: Effective dose for LSD-like behavioral effect in rats. Type of assay: functional.
For assay [2], the target named is T1, 5-hydroxytryptamine receptor 2A (Homo sapiens, UniProt P28223). In words: Binding ability of compound at cloned human 5-hydroxytryptamine 2A receptor using [3H]ketanserin as radioligand.
Assay [3] has as its target T2, 5-hydroxytryptamine receptor 2C (Homo sapiens, UniProt P28335).
T2 sequence (P28335 whole entry): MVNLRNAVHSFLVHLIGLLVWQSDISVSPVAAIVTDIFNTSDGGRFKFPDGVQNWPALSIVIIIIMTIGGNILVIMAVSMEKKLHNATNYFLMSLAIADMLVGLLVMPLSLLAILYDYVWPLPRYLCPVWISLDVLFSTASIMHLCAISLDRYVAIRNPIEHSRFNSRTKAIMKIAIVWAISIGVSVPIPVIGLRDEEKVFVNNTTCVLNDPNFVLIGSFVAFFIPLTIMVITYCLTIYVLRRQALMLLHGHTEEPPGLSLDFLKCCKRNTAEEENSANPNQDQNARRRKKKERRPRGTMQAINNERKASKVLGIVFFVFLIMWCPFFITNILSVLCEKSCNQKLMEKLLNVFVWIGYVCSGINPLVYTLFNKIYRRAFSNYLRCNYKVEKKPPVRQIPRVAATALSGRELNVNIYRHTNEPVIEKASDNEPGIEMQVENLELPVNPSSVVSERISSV
Description: Binding ability of compound at cloned human 5-hydroxytryptamine 2C receptor using [125 I]DOI as radioligand.

In assay [4] the target is T2, 5-hydroxytryptamine receptor 2C. Description: Binding ability of compound at cloned human 5-hydroxytryptamine 2C receptor using [3H]- mesulergine as radioligand.
Assay [5] concerns the target T1, 5-hydroxytryptamine receptor 2A. In words: Binding ability of compound at cloned human 5-hydroxytryptamine 2A receptor using [125 I]DOI as radioligand.
Assay [6] has as its target T3, 5-hydroxytryptamine receptor 2B (Homo sapiens, UniProt P41595). Description: Binding ability of compound at cloned human 5-hydroxytryptamine 2B receptor using [3H]rauwolscine as radioligand.
The target in assay [7] is 5-hydroxytryptamine receptor 2A (Rattus norvegicus, UniProt P14842). Description: Affinity at [3H]ketanserin-labeled 5-hydroxytryptamine 2A receptor in rat brain homogenate was determined. Type of assay: tissue-based.
In assay [8] the target is T3, 5-hydroxytryptamine receptor 2B. Description: Binding ability of compound at cloned human 5-hydroxytryptamine 2B receptor using [3H]5-HT 2B as radioligand.
Assay [9] deals with T4, 5-hydroxytryptamine receptor 1A (Rattus norvegicus, UniProt P19327).
T4 sequence (P19327 whole entry): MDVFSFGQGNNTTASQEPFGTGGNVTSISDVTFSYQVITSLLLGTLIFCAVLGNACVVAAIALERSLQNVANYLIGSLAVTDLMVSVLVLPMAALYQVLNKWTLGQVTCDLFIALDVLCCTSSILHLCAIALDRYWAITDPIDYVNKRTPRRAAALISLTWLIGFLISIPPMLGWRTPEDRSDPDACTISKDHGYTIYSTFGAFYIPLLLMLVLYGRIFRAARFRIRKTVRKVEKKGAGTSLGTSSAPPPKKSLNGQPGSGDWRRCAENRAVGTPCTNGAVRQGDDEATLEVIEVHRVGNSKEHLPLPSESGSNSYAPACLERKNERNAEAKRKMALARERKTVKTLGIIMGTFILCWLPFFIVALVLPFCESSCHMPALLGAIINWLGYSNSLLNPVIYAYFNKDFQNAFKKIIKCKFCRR
Description: Affinity at [3H]8-OH-DPAT-labeled 5-hydroxytryptamine 1A receptor in rat brain homogenate was determined. Format: tissue-based.

Assay [10] has as its system Rattus norvegicus. Description: Percentage of animals emitting 50 presses on the LSD appropriate lever during the test period in rat at 0.02 mg/kg(0.046 uM/kg). Type of assay: functional.
The test system of assay [11] is Rattus norvegicus. Description: Percentage of animals emitting 50 presses on the LSD appropriate lever during the test period i8n at 0.04 mg/kg (0.093 uM/kg). Type of assay: functional.
The test system of assay [12] is Rattus norvegicus. Description: Percentage of animals failing to emit 50 presses on either lever within the 15-min test period in rat at 0.04 mg/kg (0.093 uM/kg). Type of assay: functional.
Assay [13] relates to Rattus norvegicus. In words: Percentage of animals failing to emit 50 presses on either lever within the 15-min test period in rat at 0.02 mg/kg(0.046 uM/kg). Type of assay: functional.
Assay [14] has as its system Rattus norvegicus. Description: Percentage of animals failing to emit 50 presses on either lever within the 15-min test period in rat at 0.01 mg/kg (0.023 uM/kg). Format: functional.
The test system of assay [15] is Rattus norvegicus. In words: Percentage of animals failing to emit 50 presses on either lever within the 15-min test period in rat at 0.08 mg/kg (0.186 uM/kg). Format: functional.
In assay [16] the test system is Rattus norvegicus. Description: Percentage of animals emitting 50 presses on the LSD appropriate lever during the test period in at 0.08 mg/kg (0.186 uM/kg). Type of assay: functional.
Assay [17] has as its system Rattus norvegicus. Description: Percentage of animals emitting 50 presses on the LSD appropriate lever during the test period in rat at 0.01 mg/kg (0.023 uM/kg). Format: functional.

T1 sequence (P28223 whole entry): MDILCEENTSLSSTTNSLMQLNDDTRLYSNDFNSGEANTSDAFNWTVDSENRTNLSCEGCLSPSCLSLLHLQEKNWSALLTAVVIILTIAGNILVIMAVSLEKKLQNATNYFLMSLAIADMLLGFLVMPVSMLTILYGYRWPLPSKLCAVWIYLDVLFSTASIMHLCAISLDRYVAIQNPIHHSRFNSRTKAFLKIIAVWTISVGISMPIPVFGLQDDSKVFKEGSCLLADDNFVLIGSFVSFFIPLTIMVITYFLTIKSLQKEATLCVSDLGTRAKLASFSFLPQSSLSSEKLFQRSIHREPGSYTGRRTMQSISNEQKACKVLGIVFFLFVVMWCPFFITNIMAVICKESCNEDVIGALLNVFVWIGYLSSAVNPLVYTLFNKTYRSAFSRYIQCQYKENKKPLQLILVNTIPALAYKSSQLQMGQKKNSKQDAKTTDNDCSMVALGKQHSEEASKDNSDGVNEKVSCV
T3 sequence (P41595 whole entry): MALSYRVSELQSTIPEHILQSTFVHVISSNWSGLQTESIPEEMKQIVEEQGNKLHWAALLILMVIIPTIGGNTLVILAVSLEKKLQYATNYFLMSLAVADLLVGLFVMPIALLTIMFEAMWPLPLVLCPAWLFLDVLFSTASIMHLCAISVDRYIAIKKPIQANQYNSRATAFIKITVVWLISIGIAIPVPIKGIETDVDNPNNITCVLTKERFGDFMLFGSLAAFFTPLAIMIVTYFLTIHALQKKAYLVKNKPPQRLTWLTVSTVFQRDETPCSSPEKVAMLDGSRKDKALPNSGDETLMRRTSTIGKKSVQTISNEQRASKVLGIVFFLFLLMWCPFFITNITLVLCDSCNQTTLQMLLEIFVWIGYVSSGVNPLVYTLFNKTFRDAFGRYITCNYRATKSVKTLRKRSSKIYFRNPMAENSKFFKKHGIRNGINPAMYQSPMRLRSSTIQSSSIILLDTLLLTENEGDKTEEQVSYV
5-hydroxytryptamine receptor 2A (Rattus norvegicus, UniProt P14842), sequence (P14842 whole entry): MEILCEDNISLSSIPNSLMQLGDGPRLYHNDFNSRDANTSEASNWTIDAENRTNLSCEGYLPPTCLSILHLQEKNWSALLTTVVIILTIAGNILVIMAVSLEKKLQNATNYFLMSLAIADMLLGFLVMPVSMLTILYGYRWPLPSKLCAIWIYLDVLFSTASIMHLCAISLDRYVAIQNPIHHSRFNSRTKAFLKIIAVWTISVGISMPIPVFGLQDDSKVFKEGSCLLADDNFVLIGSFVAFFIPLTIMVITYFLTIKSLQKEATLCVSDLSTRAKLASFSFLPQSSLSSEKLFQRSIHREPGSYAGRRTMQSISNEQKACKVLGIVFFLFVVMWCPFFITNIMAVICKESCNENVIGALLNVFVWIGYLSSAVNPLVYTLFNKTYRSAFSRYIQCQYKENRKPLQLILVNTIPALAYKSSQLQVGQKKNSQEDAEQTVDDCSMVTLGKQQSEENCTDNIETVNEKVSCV

In the assay filed under Rattus norvegicus [1], `C[C@@H](N)Cc1c2c(c(Br)c3c1OCC3)OCC2` gave an ED50 of 0.061 mg/kg. Also, the inhibitory constant (Ki) was found to be 10.7 nM in assay [2]; 0.3 nM in assay [3]; 2.28 nM in assay [4]; 0.48 nM in [5]; 1.15 nM in assay [6]; 18 nM in [7]. The Ki in [8] was determined as 1.6 nM; in [9] it was 4300 nM.

As for `CCN(CC)C(=O)[C@@H]1C=C2c3cccc4[nH]cc(c34)C[C@H]2N(C)C1` [LYSERGIDE], in the assay filed under Rattus norvegicus [1], the ED50 is 0.037 µmol/kg and 0.016 mg/kg. For the same molecule, the SDL was 62% in the assay on Rattus norvegicus [10], 81% in the assay on Rattus norvegicus [11], 100% in the assay on Rattus norvegicus [16] and 31% with Rattus norvegicus [17]. The D with Rattus norvegicus [12] turned out to be 0%; in the assay on Rattus norvegicus [13] it was 7%; in the assay with Rattus norvegicus [14] it was 0%; with Rattus norvegicus [15] it was 0%.
